Our source for the half-life values is patent publication US9982017B2, “Synthetic apelin mimetics for the treatment of heart failure” (priority 2012, dated 2018).

Where a SMILES comes first, the peptide text is derived from it. Bridges are numbered along the chain shown (N, C = ends). [ ]: non-standard residue; d: D form. The star is where a group is joined. Palmitoyl = CCCCCCCCCCCCCCCC(=O)*; pGlu = O=C1CC[C@@H](C(=O)O)N1; NHPhenethyl = c1ccc(CCN*)cc1; Lauroyl = CCCCCCCCCCCC(=O)*; Nle = CCCC[C@H](N)C(=O)O; Orn = NCCC[C@H](N)C(=O)O; Api = NC1(C(=O)O)CCNCC1; Dab = NCC[C@H](N)C(=O)O; AEEA = NCCOCCOCC(=O)O; Aib = CC(C)(N)C(=O)O; Inp = O=C(O)C1CCNCC1

The half-life is the time needed for the level to fall by half in the phase considered. A high value points to slow decline.

The data set is described as follows: in vitro. The note with it: rat, not told, Surrogate activity-based Plasma stability t½.
Method: The slope of this line, k, was determined by linear regression (Microsoft Excel). • Stability half-life was then calculated by the formula, t ½=0.693÷k Surrogate Activity-Based Plasma Stability Assay:
The calcium flux protocol described above was followed, with the following changes. The peptides were also incubated with 5% rat plasma (Bioreclamation # [sequence]-M, Na Heparin-treated). Readings were taken at time points t0 and t24 hrs, after incubation in a 37° C. tissue culture incubator. Peptide plasma half-life in minutes was estimated by calculating the following:
2) Calculate slope of value above and
The compound `CCCC[C@@H]1NC(=O)[C@@H]2CCCN2C(=O)CNC(=O)[C@H](Cc2ccccc2)NC(=O)[C@H](Cc2c[nH]cn2)NC(=O)[C@@H](NC(=O)[C@H](CC(C)C)NC(=O)[C@H](CCCNC(=N)N)NC(=O)[C@@H]2CCCN2C(=O)[C@H](CCCNC(=N)N)NC(=O)[C@@H]2CCC(=O)N2)CCCCNC(=O)C[C@@H](C(=O)NCCc2ccccc2)NC1=O` [Example 1, pE-R-P-R-L-K-H-F-G-P-Nle-D-Phenethylamine] ([pGlu]RPRLKHFGP[Nle]D-NHPhenethyl; lactam 6-12) displayed a half-life of 0.512 h.
Next, `CCCC[C@@H]1NC(=O)[C@@H]2CCCN2C(=O)CNC(=O)[C@H](Cc2ccccc2)NC(=O)[C@H](Cc2c[nH]cn2)NC(=O)[C@@H](NC(=O)[C@H](CC(C)C)NC(=O)[C@H](CCCNC(=N)N)NC(=O)[C@@H]2CCCN2C(=O)[C@H](CCCNC(=N)N)NC(=O)[C@@H]2CCC(=O)N2)CCCCNC(=O)CC[C@@H](C(=O)NCCc2ccccc2)NC1=O` [Example 2, pE-R-P-R-L-K-H-F-G-P-Nle-E-Phenethylamine] ([pGlu]RPRLKHFGP[Nle]E-NHPhenethyl; lactam 6-12): 0.452 h.
Consider `CCCC[C@@H]1NC(=O)[C@@H]2CCCN2C(=O)CNC(=O)[C@H](Cc2ccccc2)NC(=O)[C@H](Cc2c[nH]cn2)NC(=O)[C@@H](NC(=O)[C@H](CC(C)C)NC(=O)[C@H](CCCNC(=N)N)NC(=O)[C@@H]2CCCN2C(=O)[C@H](CCCNC(=N)N)NC(=O)[C@@H]2CCC(=O)N2)CCCNC(=O)C[C@@H](C(=O)NCCc2ccccc2)NC1=O` [Example 3, pE-R-P-R-L-Orn-H-F-G-P-Nle-D-Phenethylamine] ([pGlu]RPRL[Orn]HFGP[Nle]D-NHPhenethyl; lactam 6-12), for which the half-life turned out to be 1.63 h.
Next, `CCCC[C@@H]1NC(=O)[C@@H]2CCCN2C(=O)CNC(=O)[C@H](Cc2ccccc2)NC(=O)[C@H](Cc2c[nH]cn2)NC(=O)[C@@H](NC(=O)[C@H](CC(C)C)NC(=O)[C@H](CCCNC(=N)N)NC(=O)[C@@H]2CCCN2C(=O)[C@H](CCCNC(=N)N)NC(=O)[C@@H]2CCC(=O)N2)CCNC(=O)C[C@@H](C(=O)NCCc2ccccc2)NC1=O` [Example 4, pE-R-P-R-L-Dab-H-F-G-P-Nle-D-Phenethylamine] ([pGlu]RPRL[Dab]HFGP[Nle]D-NHPhenethyl; lactam 6-12): 0.833 h; `CCCC[C@@H]1NC(=O)[C@@H]2CCCN2C(=O)CNC(=O)[C@H](CCCCN)NC(=O)[C@H](Cc2ccccc2)NC(=O)[C@@H](NC(=O)[C@H](CC(C)C)NC(=O)[C@H](CCCNC(=N)N)NC(=O)[C@@H]2CCCN2C(=O)[C@H](CCCNC(=N)N)NC(=O)[C@@H]2CCC(=O)N2)CCCCNC(=O)[C@H](Cc2ccccc2)NC1=O` [Example 5, pE-R-P-R-L-K-F-K-G-P-Nle-F] ([pGlu]RPRLKFKGP[Nle]F; lactam 6-C): 2.1 h.
Next, `CCCC[C@@H]1NC(=O)[C@@H]2CCCN2C(=O)CNC(=O)[C@H](CCCCN)NC(=O)[C@H](Cc2ccccc2)NC(=O)[C@@H](NC(=O)[C@H](CC(C)C)NC(=O)[C@H](CCCNC(=N)N)NC(=O)[C@@H]2CCCN2C(=O)[C@H](CCCNC(=N)N)NC(=O)[C@@H]2CCC(=O)N2)CCCCNC(=O)[C@@H](Cc2ccccc2)NC1=O` [Example 6, pE-R-P-R-L-K-F-K-G-P-Nle-f] ([pGlu]RPRLKFKGP[Nle][dF]; lactam 6-C): 1.95 h; `CCCC[C@@H]1NC(=O)[C@@H]2CCCN2C(=O)CNC(=O)[C@H](CCCCN)NC(=O)C(C)(C)NC(=O)[C@@H](NC(=O)[C@H](CC(C)C)NC(=O)[C@H](CCCNC(=N)N)NC(=O)[C@@H]2CCCN2C(=O)[C@H](CCCNC(=N)N)NC(=O)[C@@H]2CCC(=O)N2)CSSC[C@@H](C(=O)N[C@@H](Cc2ccccc2)C(=O)O)NC1=O` [Example 9, pE-R-P-R-L-C-Aib-K-G-P-Nle-C-F-OH] ([pGlu]RPRLC[Aib]KGP[Nle]CF-OH; disulfide 6-12): > 16.7 h; `CCCC[C@@H]1NC(=O)[C@@H]2CCCN2C(=O)CNC(=O)[C@H](CCCCN)NC(=O)C(C)(C)NC(=O)[C@@H](NC(=O)[C@H](CC(C)C)NC(=O)[C@H](CCCNC(=N)N)NC(=O)[C@@H]2CCCN2C(=O)[C@H](CCCNC(=N)N)NC(=O)[C@@H]2CCC(=O)N2)CSSC[C@@H](C(=O)N[C@H](Cc2ccccc2)C(=O)O)NC1=O` [Example 10, pE-R-P-R-L-C-Aib-K-G-P-Nle-C-f-OH] ([pGlu]RPRLC[Aib]KGP[Nle]C[dF]-OH; disulfide 6-12): > 16.7 h.
Next, `CCCC[C@@H]1NC(=O)[C@@H]2CCCN2C(=O)CNC(=O)[C@H](CCCCN)NC(=O)C(C)(C)NC(=O)[C@@H](NC(=O)[C@H](CC(C)C)NC(=O)[C@H](CCCNC(=N)N)NC(=O)[C@@H]2CCCN2C(=O)[C@H](CCCNC(=N)N)NC(=O)C2CCNCC2)CSSC[C@@H](C(=O)N[C@H](Cc2ccccc2)C(=O)O)NC1=O` [Example 11, H-Isn-R-P-R-L-C-Aib-K-G-P-Nle-C-f-OH] (H-[Inp]RPRLC[Aib]KGP[Nle]C[dF]-OH; disulfide 6-12): > 16.7 h.
Compound `CCCC[C@@H]1NC(=O)[C@@H]2CCCN2C(=O)CNC(=O)[C@H](CCCCN)NC(=O)[C@H](Cc2ccccc2)NC(=O)[C@@H](NC(=O)[C@H](CC(C)C)NC(=O)[C@H](CCCNC(=N)N)NC(=O)[C@@H]2CCCN2C(=O)[C@H](CCCNC(=N)N)NC(=O)[C@@H]2CCC(=O)N2)CSSC[C@@H](C(=O)N[C@@H](Cc2ccccc2)C(=O)O)NC1=O` [Example 15, pE-R-P-R-L-C-F-K-G-P-Nle-C-F-OH] ([pGlu]RPRLCFKGP[Nle]CF-OH; disulfide 6-12) showed a half-life of 3.01 h.
Then `CCCC[C@@H]1NC(=O)[C@@H]2CCCN2C(=O)CNC(=O)[C@H](Cc2ccccc2)NC(=O)[C@H](Cc2c[nH]cn2)NC(=O)[C@@H](NC(=O)[C@H](CC(C)C)NC(=O)[C@H](CCCNC(=N)N)NC(=O)[C@@H]2CCCN2C(=O)[C@H](CCCNC(=N)N)NC(=O)[C@@H]2CCC(=O)N2)CSSC[C@@H](C(=O)NCCc2ccccc2)NC1=O` [Example 19, pE-R-P-R-L-C-H-F-G-P-Nle-C-Phenethylamine] ([pGlu]RPRLCHFGP[Nle]C-NHPhenethyl; disulfide 6-12), with 0.473 h.
With `CCCC[C@@H]1NC(=O)[C@@H]2CCCN2C(=O)C(C)(C)NC(=O)[C@H](CCCCN)NC(=O)[C@H](Cc2c[nH]cn2)NC(=O)[C@@H](NC(=O)[C@H](CC(C)C)NC(=O)[C@H](CCCNC(=N)N)NC(=O)[C@@H]2CCCN2C(=O)[C@H](CCCNC(=N)N)NC(=O)[C@@H]2CCC(=O)N2)CSSC[C@@H](C(=O)N[C@@H](Cc2ccccc2)C(=O)O)NC1=O` [Example 20, pE-R-P-R-L-C-H-K-Aib-P-Nle-C-F-OH] ([pGlu]RPRLCHK[Aib]P[Nle]CF-OH; disulfide 6-12), the half-life was 8.17 h. Compared with the last compound, the half-life is about 17-fold higher.
Consider `CCCC[C@@H]1NC(=O)[C@@H]2CCCN2C(=O)CNC(=O)C2(CCNCC2)NC(=O)[C@H](Cc2c[nH]cn2)NC(=O)[C@@H](NC(=O)[C@H](CC(C)C)NC(=O)[C@H](CCCNC(=N)N)NC(=O)[C@@H]2CCCN2C(=O)[C@H](CCCNC(=N)N)NC(=O)[C@@H]2CCC(=O)N2)CSSC[C@@H](C(=O)N[C@@H](Cc2ccccc2)C(=O)O)NC1=O` [Example 21, pE-R-P-R-L-C-H-(4-NH-Isn)-G-P-Nle-C-F-OH] ([pGlu]RPRLCH[Api]GP[Nle]CF-OH; disulfide 6-12), for which the half-life was 10.7 h.
As to `CCCCCCCCCCCCCCCC(=O)NCCCC[C@H](NC(=O)[C@@H]1CSSC[C@H](NC(=O)[C@H](CC(C)C)NC(=O)[C@H](CCCNC(=N)N)NC(=O)[C@@H]2CCCN2C(=O)[C@H](CCCNC(=N)N)NC(=O)[C@@H]2CCC(=O)N2)C(=O)N[C@@H](Cc2c[nH]cn2)C(=O)N[C@@H](CCCCN)C(=O)NCC(=O)N2CCC[C@H]2C(=O)N[C@@H](CCCC)C(=O)N1)C(=O)O` [Example 22, pE-R-P-R-L-C-H-K-G-P-Nle-C-K(Palmitoyl)-OH] ([pGlu]RPRLCHKGP[Nle]CK(Palmitoyl)-OH; disulfide 6-12), the half-life stood at 13.3 h.
As for `CCCCCCCCCCCCCCCC(=O)NCCCC[C@@H]1NC(=O)[C@@H](NC(=O)[C@H](CC(C)C)NC(=O)[C@H](CCCNC(=N)N)NC(=O)[C@@H]2CCCN2C(=O)[C@H](CCCNC(=N)N)NC(=O)[C@@H]2CCC(=O)N2)CSSC[C@@H](C(=O)N[C@@H](Cc2ccccc2)C(=O)O)NC(=O)[C@H](CCCC)NC(=O)[C@@H]2CCCN2C(=O)CNC(=O)[C@H](CCCCN)NC1=O` [Example 23, pE-R-P-R-L-C-K(Palmitoyl)-K-G-P-Nle-C-F-OH] ([pGlu]RPRLCK(Palmitoyl)KGP[Nle]CF-OH; disulfide 6-12), the half-life was > 16.7 h.
For `CCCCCCCCCCCC(=O)NCCOCCOCC(=O)N[C@@H](CCC(N)=O)C(=O)N[C@@H](CCCNC(=N)N)C(=O)N1CCC[C@H]1C(=O)N[C@@H](CCCNC(=N)N)C(=O)N[C@@H](CC(C)C)C(=O)N[C@H]1CSSC[C@@H](C(=O)N[C@@H](Cc2ccccc2)C(=O)O)NC(=O)[C@H](CCCC)NC(=O)[C@@H]2CCCN2C(=O)CNC(=O)[C@H](CCCCN)NC(=O)[C@H](Cc2c[nH]cn2)NC1=O` [Example 25, Lauroyl-O2Oc-Q-R-P-R-L-C-H-K-G-P-Nle-C-F-OH] ({Lauroyl-AEEA}-QRPRLCHKGP[Nle]CF-OH; disulfide 6-12), the half-life was > 16.7 h.
For the compound `CCCCCCCCCCCC(=O)NCCCC[C@H](NC(=O)[C@@H]1CSSC[C@H](NC(=O)[C@H](CC(C)C)NC(=O)[C@H](CCCNC(=N)N)NC(=O)[C@@H]2CCCN2C(=O)[C@H](CCCNC(=N)N)NC(=O)[C@@H]2CCC(=O)N2)C(=O)N[C@@H](Cc2c[nH]cn2)C(=O)N[C@@H](CCCCN)C(=O)NCC(=O)N2CCC[C@H]2C(=O)N[C@@H](CCCC)C(=O)N1)C(=O)O` [Example 26, pE-R-P-R-L-C-H-K-G-P-Nle-C-K(Lauroyl)-OH] ([pGlu]RPRLCHKGP[Nle]CK(Lauroyl)-OH; disulfide 6-12), the half-life was > 16.7 h.
For the compound `CCCCCCCCCCCC(=O)NCCCC[C@@H]1NC(=O)[C@@H](NC(=O)[C@H](CC(C)C)NC(=O)[C@H](CCCNC(=N)N)NC(=O)[C@@H]2CCCN2C(=O)[C@H](CCCNC(=N)N)NC(=O)[C@@H]2CCC(=O)N2)CSSC[C@@H](C(=O)N[C@@H](Cc2ccccc2)C(=O)O)NC(=O)[C@H](CCCC)NC(=O)[C@@H]2CCCN2C(=O)CNC(=O)[C@H](CCCCN)NC1=O` [Example 27, pE-R-P-R-L-C-K(Lauroyl)-K-G-P-Nle-C-F-OH] ([pGlu]RPRLCK(Lauroyl)KGP[Nle]CF-OH; disulfide 6-12), the half-life was > 16.7 h.
